From patent publication US20250082651A1, “GANAXOLONE FOR USE IN TREATING GENETIC EPILEPTIC DISORDERS” (Marinus Pharmaceuticals, Inc., priority 2017, published 2025)
Where “and” joins values, the source holds several entries; their conditions need not be identical. Identical values can stand only once.

Key:
rats [1] = test: Oral and IV single- and repeat-dose toxicology studies; type: in vivo, rat
dogs = test: 1-year (chronic oral) dog toxicity study; type: in vivo
Description: There was a physiologically normal shortening of the PR and QT interval in response to the higher heart rate. There was no effect on QRS duration or QTc interval.
In the oral dosing programme, a therapeutic index from non-human NOAEL levels to the adult partial-onset seizure epilepsy and the pharmacokinetics study is approximately 2 to 3-fold in dogs (sedation).

rats [2] = test: Intravenous ganaxolone in rats: EEG and status epilepticus models; type: in vivo, rat
[3] = test system: subjects with focal onset seizure disorder; conditions: post hoc, subjects taking 3 or more concomitant AEDs, p=0.02; cited from earlier work
[4] = Multiple dose PK, 0.3 micron capsules 600, 800, 1000 mg BID escalating, healthy volunteers; type: in vivo, human; conditions: for Cmax: steady state
Procedure: Multiple-dose studies of oral ganaxolone formulations were conducted in healthy volunteers. The 0.3 micron ganaxolone capsules were administered BID with a standard meal or snack for 7 days and at increasing doses.
Steady-state was reached within 3 days of administration of 600, 800 and 1000 mg BID ganaxolone to healthy subjects. The medium and high dose regimens were started after 3 days on the low dose and medium dose regimens, respectively. In general, ganaxolone was rapidly absorbed following PO administration and the mean Cmax was attained within 2 hours after multiple dosing; median Tmax was independent of dose level. […] Proportionality was conserved from 600 mg to 800 mg.
Values at Day 6.5, 9.5 and 12.5 are from evening samples collected 12 hrs after the last dose on PK sampling days. Subjects received 600 mg ganaxolone BID on Days 4-6; 800 mg ganaxolone BID on Days 7-9; and 1000 mg ganaxolone BID on Days 10-12.

[5] = Integrated adverse events from placebo controlled studies of ganaxolone; type: in vivo, human; conditions: Ganaxolone n = 750, placebo controlled studies
Description: As noted in Table 6, across multiple placebo controlled studies of ganaxolone across multiple indications including epilepsy, few side effects are reported that occur at a rate higher than those reported in placebo-treated subjects. These side effects are generally mild and have always been reversible. […] Four of the 7 children enrolled into this study remain on ganaxolone. Adverse events in this study are similar to those reported for all placebo controlled studies completed to date as summarized in Table 6 below.

[6] = test system: children with Lennox-Gastaut Syndrome; test: Phase 2 open-label trial, LGS cohort, seizure efficacy; type: in vivo, human
Description: Example 3 concerns a Phase 2 Multicenter, Open-Label Proof-of-Concept Trial of ganaxolone (GNX) in cohorts of children having genetic epilepsies (PCDH19, CDKL5 LGS, and CSWS) (ClinicalTrials.gov Identifier: NCT02358538). There were 11 female children with PCDH19 epilepsy between 5-16 years old with a confirmed genetic mutation. There were 6 female and 1 male children with confirmed genetic mutations in the CDKL5 cohort. There were 10 children in the Lennox Gastaut Syndrome cohort. Two children with CSWS were enrolled into the study. The study was conducted with 12 weeks baseline, and up to 26 weeks of treatment followed by a 52 week open label treatment. The primary efficacy was the percentage change in seizure frequency per 28 days relative to baseline calculated using daily seizure diary. [Time Frame: 26 weeks]. Secondary Outcome Measures were: Clinician Global Impression of Change score as assessed by questionnaire. [Time Frame: 26 Weeks]; Patient Global Impression of Change score as assessed by questionnaire. [Time Frame: 26 Weeks]; Evaluation of safety and tolerability of open-label ganaxolone as adjunctive therapy for uncontrolled seizures in children with rare genetic epilepsies, based on adverse event log and other clinical safety assessments. [Time Frame: 26 weeks]; Responder rates [Time Frame: 26 weeks]; and Seizure free days [Time Frame: 26 weeks].
Following screening and baseline evaluations, consenting patients enrolled into a 26-week study during which investigators were allowed to flexibly dose ganaxolone up to a dose of 1,800 mg/day for patients whose body weight was >30 kg, or up to 63 mg/kg/day for patients whose body-weight was <30 kg. The primary efficacy measure is % change from baseline in the 28-day seizure frequency count. Safety and tolerability were within the secondary objectives of the study.
In this study, oral ganaxolone suspension or capsules were administered up to a total of 63 mg/kg/day (maximum 1800 mg/day) over 2-4 weeks. About six-eight titration steps are used, depending on the size of the patient. Children larger than 30 kg may take the ganaxolone capsules. The ganaxolone oral suspension was administered through an oral dosing syringe three times daily. The ganaxolone capsules were administered twice daily. The patients experience better absorption of the ganaxolone with meals (milk).
After establishing baseline seizure frequency, qualifying subjects entered the study and were treated with open-label ganaxolone oral suspension or ganaxolone capsules at doses up to a maximum of 1800 mg/day for up to 6 months. Maximum study participation was 94 weeks: a screening period up to 12 weeks to establish baseline seizure frequency, up to 26 weeks of treatment, a 52 week extension for subjects who benefited from ganaxolone treatment, and up to 4 weeks of down titration period. […] Refractive cases of LGS or CSWS that had prior response to steroid or ACTH could also have been enrolled.
Ganaxolone oral suspension was administered through an oral dosing syringe by parent or legal guardian 3 times daily (TID), following the morning, noon, and evening meal or snack. Each dose was separated by a minimum of 4 hours and a maximum of 8 hours. A missed dose of ganaxolone could have been taken up to 4 hours before the next scheduled dose; otherwise, the missed dose was not to be given.
Ganaxolone capsules were administered with a glass of water or other liquid 2 times daily (BID), following the morning and evening meal or snack. Ganaxolone was provided as either an oral suspension or capsules based on the subject's weight at study entry. Ganaxolone oral suspension was administered through an oral dosing syringe TID by a parent or guardian, following the morning, midday, and evening meal or snack. Each dose was separated by a minimum of 4 hours and a maximum of 8 hours. Ganaxolone capsules were administered BID, following the morning and evening meal or snack. […]

CC(=O)[C@H]1CC[C@H]2[C@@H]3CC[C@H]4C[C@](C)(O)CC[C@]4(C)[C@H]3CC[C@]12C [Ganaxolone, 3α-hydroxy-3β-methyl-5α-pregnan-20-one]
Most common effect in toxicology studies (rats [1]; oral and IV programmes): dose-related sedation | Findings correlated to hepatic enzyme induction (rats [1]; rats, 6-month study, more pronounced in females): increased liver weights and dose related hepatocellular hypertrophy | Effect on QRS duration or QTc (dogs; 1-year dog study): no treatment effect | ECG finding (dogs; 1-year dog study, after 3 months of dosing, 4 animals, >190 bpm): transient sinus tachycardia | Cmax (dogs; 1-year dog toxicity study): > 1500 ng/mL | Findings at mean Cmax greater than 1500 ng/mL (dogs; chronic oral toxicity study in dogs, 10 and 15 mg/kg/day): increased weight and total plasma cholesterol levels | Therapeutic index from non-human NOAEL levels (dogs; oral dosing programme, dogs (sedation)): 2 to 3 fold | Sedative / anaesthetic response (rats [2]): did not cause a full anaesthetic response | EEG effect (rats [2]; otherwise normal rats): induce burst suppression-like electroencephalogram (EEG) patterns | Greater reduction in median seizure frequency than placebo [3]: 20% | Time to steady-state ([4]; 600, 800 and 1000 mg BID, 0.3 micron capsules): ≤ 3 days | Mean fluctuation at steady-state ([4]; 600 to 1000 mg BID): 172% to 191% | Cmax ([4]; human, plasma, oral, 600 mg BID, 0.3 micron capsules): 224 ng/mL | Cmax ([4]; human, plasma, oral, 800 mg BID, 0.3 micron capsules): 263 ng/mL | Cmax ([4]; human, plasma, oral, 1000 mg BID, 0.3 micron capsules): 262 ng/mL | clearance ([4]; human, plasma, oral, 600 to 1000 mg BID, read-out: Mean apparent total body CL at steady-state): 10200 to 12800 mL/min | Dose through which pharmacokinetics are linear ([4]; immediate release 0.3-micron particles, given BID): approximately 1200 mg/day | Adverse event: Dizziness [5]: 95 (13%) n (%) | Adverse event: Fatigue [5]: 51 (7%) n (%) | Adverse event: Headache [5]: 37 (5%) n (%) | Adverse event: Somnolence [5]: 134 (18%) n (%) | 28-day seizure frequency, sum of individual seizures and clusters, post-baseline 26-week open-label period, Mean (SD) ([6]; LGS N=10, MITT): 263.66 (502.176) | 28-day seizure frequency, sum of individual seizures and clusters, post-baseline 26-week open-label period, Median ([6]; LGS N=10, MITT): 65.08 | 28-day seizure frequency, sum of individual seizures and clusters, post-baseline through Month 3 (Day 91), Mean (SD) ([6]; LGS N=10, MITT): 263.91 (502.477) | 28-day seizure frequency, sum of individual seizures and clusters, post-baseline through Month 3 (Day 91), Median ([6]; LGS N=10, MITT): 75.91 | Percent change from baseline (at Day 91), 28-day seizure frequency, sum of individual seizures and clusters, Mean (SD) ([6]; LGS N=10, MITT): 122.10% and 122.10 (321.124) % | Percent change from baseline (at Week 26), 28-day seizure frequency, sum of individual seizures and clusters, Mean (SD) ([6]; LGS N=10, MITT): 125.38% and 125.38 (319.051) % | Percent change from baseline (at Week 26), 28-day seizure frequency, sum of individual seizures and clusters, Median ([6]; LGS N=10, MITT): −9.19% | Mean percent change in 28-day total seizure frequency from baseline to Week 26 ([6]; LGS cohort, PP Population): 18.43% | Median percent change in 28-day total seizure frequency from baseline to Week 26 ([6]; LGS cohort, PP Population): 11.15% | Clinical global impression of improvement: much improved ([6]; LGS cohort, end of Week 26): 1 subject | Clinical global impression of improvement: very much improved ([6]; LGS cohort, end of Week 26): 1 subject | Percent change from baseline (at Day 91), 28-day individual seizure frequency, Mean (SD) ([6]; LGS n=9, MITT): 226.72% and 226.72 (496.750) % | Percent change from baseline (at Day 91), 28-day individual seizure frequency, Median ([6]; LGS n=9, MITT): −9.56% | Percent change from baseline (at Week 26), 28-day individual seizure frequency, Mean (SD) ([6]; LGS n=9, MITT): 229.90% and 229.90 (494.164) % | Percent change from baseline (at Week 26), 28-day individual seizure frequency, Median ([6]; LGS n=9, MITT): 5.04% | 28-day individual seizure frequency, post-baseline 26-Week open-label period, Mean (SD) ([6]; LGS n=10, MITT): 257.07 (503.453) | 28-day individual seizure frequency, post-baseline 26-Week open-label period, Median ([6]; LGS n=10, MITT): 55.93 | 28-day individual seizure frequency, post-baseline through Month 3 (Day 91), Mean (SD) ([6]; LGS n=10, MITT): 256.48 (503.934) | 28-day individual seizure frequency, post-baseline through Month 3 (Day 91), Median ([6]; LGS n=10, MITT): 64.71
